In paper PMC7806714, “Statins for the prevention of proliferative vitreoretinopathy: cellular responses in cultured cells and clinical statin concentrations in the vitreous” (Scientific Reports, 2021):

How the values were obtained:
[1] = tested on: ARPE-19 cells; test: LDH release assay (cell membrane integrity); format: cell-based, human
Procedure: (§1) Cell viability was assessed by determining the amount of LDH enzyme from culture media using a commercial kit (Promega Corporation, USA) according to the manufacturer’s protocol. This assay provides information about the integrity of the plasma membranes of the cells (high LDH levels meaning cell damage). In addition, the cell viability was examined with MTT assay, as described previously. In viable cells, the mitochondrial succinate dehydrogenase enzyme can metabolize the MTT dye into formazan that absorbs light at the 550 nm wavelength.

[2] = MTT cell viability assay; format: cell-based, human; conditions: human, ARPE-19 cells; dissolved in DMSO; read-out: Cell viability (MTT) compared to DMSO control
Procedure: as §1

[3] = tested on: ARPE-19 cells; test: MTT cell viability assay; format: cell-based, human
Procedure: as §1

[4] = UPLC-MS/MS statin and metabolite concentrations in vitreous of vitrectomy patients on oral statins; format: in vivo, human
Procedure: The study was conducted according to the tenets of the Declaration of Helsinki, and was approved by the Institutional Review Board and Ethical committee of Helsinki University Central Hospital. Twenty patients were enrolled; fifteen with per oral statin treatment and five controls. Signed informed consent was obtained from each participant prior to the vitreous sampling. Confidentiality of the patient records was maintained when the clinical data were entered into a computer-based standardized data entry for analysis. Sixteen patients were being operated due to PDR; of these, five patients had also Tractional Retinal Detachment (TRD); two patients were operated due to RRD, one due to age-related epiretinal fibrosis (pucker), and one due to a macular hole (Supplementary Table S2). […] All vitrectomies were performed by the recruiting vitreoretinal surgeon (SL). […] The samples were collected by manual aspiration into a syringe via the vitrectomy with the cutting function activated. Sample aliquots were transferred into sterile 1.5 mL microcentrifuge tubes (Freemont, CA, USA) and immediately frozen and stored at − 70 °C until laboratory analysis. […] All reference compounds and internal standards were purchased from Toronto Research Chemicals (Toronto, Canada). Samples (100 µl) were divided into two aliquots and kept at − 80 °C prior to analysis. […] Homogenizer blocks were pre-cooled by placing them at − 20 °C. […] Supernatants (120 µl) were pipetted into analytical vials and the concentrations of the statins were measured with Ultra-high Pressure Liquid Chromatography—tandem Mass Spectrometry (UPLC-MS/MS) technique. The same pre-treatment protocol was used to prepare calibration curves and quality control samples but homogenized and filtered porcine vitreous were used as a matrix instead of human vitreous. A minimum of six calibration curve concentrations was used for quantitation of the compounds. Two parallel calibration curve sets included all eleven analytes and four deuterated internal standards. Three quality control samples in three parallel sets were used to validate the method. The linear range varied from approximately 0.004 to 10 ng/mL depending on the analyte. Limit of quantitation was set to the smallest calibration curve point of each drug. Each sample was analysed twice and the average of these values was designated as the concentration of the sample. […] For rosuvastatin, two metabolites were analysed: rosuvastatin lactone and N-desmethyl rosuvastatin lactone. Rosuvastatin D6 was used as an internal standard. The parent drug, its metabolites and internal standard were analysed from the same sample in each case. Liquid chromatography separation was carried out using a Waters Acquity UPLC instrument (Waters, MA, USA) coupled with Waters HSS T3 C18 (2.1 × 100 mm, 1.8 µm) column at 40 °C. The mobile phase consisted of 0.1% formic acid in ultrapure water (A) and 100% of LC–MS grade acetonitrile (B). […] The flow rate was set to 0.3 mL/min and injection volume 1.5 µl. After every three samples, a solvent blank was run to control for any carry over. Mass spectrometry measurements were carried out using a Waters Xevo Triple Quadruple mass spectrometer (TQ-S) equipped with an ESI source. […] The source parameters were as follows: Capillary voltage 2.8 kV, source temperature 150 °C and desolvation temperature 500 °C. Nitrogen (Aga, Helsinki, Finland) was used as a desolvation gas (800 l/h), a cone gas (150 l/h) and a nebulizer gas (7 bar). Argon (Aga, Helsinki, Finland) was used as a collision gas (0.15 mL/min). The Multiple Reaction Monitoring (MRM) mode was used for quantification. Precursor and fragment ions, as well as other optimized parameters are listed in Supplementary Table S3.

[5] = Calculated average steady-state plasma (Eq. 1) and expected vitreal concentrations (Eq. 3); parameters: species or system human; conditions: for Calc. Cv: expected vitreal, Eq. 3; for Css,av: plasma, Eq. 1
Procedure: The concentrations of statins and their metabolites in the vitreous were analysed (see above) and expressed as ng/mL concentrations. These concentrations were compared to published statin concentrations in plasma. […] Maximum concentrations in plasma and the area under the concentration vs time curve values were collected. The expected average statin concentrations in plasma during multiple dose treatment were calculated for the doses that the patients received in our study (Eq. 1):1 Css,av=AUCsingledose/τ where τ is the time interval between doses. The drug concentrations in plasma (C, Cmax, Css, av) include both unbound (Cu) and protein-bound drug. The values for protein binding were obtained from the summary of drug product characteristics for each statin. The free fraction of statin in plasma was calculated based on Eq. (2):2 fu=CuC
The expected drug concentrations in the patients’ vitreous samples were calculated according to Eq. (3)3 Cv=fu×Css,av
Equation (3) assumes that the vitreal drug concentrations equilibrate with the unbound drug concentrations in plasma, because only free drug is expected to cross the blood-ocular barriers.

[6] = free fraction of drug in plasma; ref summary of product characteristics document; cited from earlier work
[7] = tested on: IL-6; test: ELISA of LPS-induced IL-6 release from ARPE-19 cells
[8] = tested on: IL-8; test: ELISA of LPS-induced IL-8 release from ARPE-19 cells; conditions: 5 µM, 24 h prior to LPS
[9] = tested on: MCP-1; test: ELISA of LPS-induced MCP-1 release from ARPE-19 cells
[10] = oral 20 mg/d, patients' vitreous
[11] = 48 h exposure prior to LPS, 1.5, 5, 10 µM tested

CC(C)c1nc(N(C)S(C)(=O)=O)nc(-c2ccc(F)cc2)c1/C=C/[C@@H](O)C[C@@H](O)CC(=O)O [Rosuvastatin]
LDH levels / cell membrane integrity ([1]; 24 h exposure, with LPS, dissolved in DMSO): more damage to the cell membrane | LDH levels / cell membrane integrity ([1]; 24 h exposure, without LPS, dissolved in DMSO): protected the integrity of the cell membrane | LDH levels / cell membrane integrity ([1]; 48 h exposure, with LPS, dissolved in DMSO): protect cells from LPS-induced cell membrane rupturing | LDH levels / cell membrane integrity ([1]; 48 h exposure, dissolved in DMSO): acute toxic effects on the cell membrane | LDH levels / cell membrane integrity ([1]; dissolved in water, 48 h, with LPS): interfered with the cell membrane integrity | LDH levels ([1]; dissolved in water, within 24 h, irrespective of LPS): did not cause any changes in the LDH levels | viability [2]: 88% | Cellular toxicity in MTT test ([3]; dissolved in DMSO, 24 h or 48 h, with or without LPS): well tolerated | Cell viability in MTT assay ([3]; dissolved in water): did not compromise cell viability | vitreous concentration range ([4]; 10–20 mg daily, oral): 52 to 316 pg/mL | Measured Cv Average ([4]; oral 10 mg/d, patients' vitreous): 0.055 ng/mL | Measured Cv Range (lower) [4, 10]: 0.052 ng/mL | Measured Cv Range (upper) [4, 10]: 0.316 ng/mL | Concentration in vitreous sample ([4]; patient 359, Pucker, diabetes, oral rosuvastatin 20 mg): 0.056 ng/mL | Concentration in vitreous sample ([4]; patient 371, PDR, dose 0* (control without reported statin treatment)): 0.241 ng/mL | Concentration in vitreous sample ([4]; patient 383, PDR, oral rosuvastatin 10 mg): 0.055 ng/mL | Concentration in vitreous sample ([4]; patient 397, PDR, oral rosuvastatin 20 mg): 0.168 ng/mL | Concentration in vitreous sample ([4]; patient 412, PDR, oral rosuvastatin 20 mg): 0.316 ng/mL | Concentration in vitreous sample ([4]; patient 428, MH, diabetes, not DR, oral rosuvastatin 20 mg): 0.052 ng/mL | Calc. Cv ([5]; 10 mg/d, China study [30]): 0.513 ng/mL | Calc. Cv ([5]; 10 mg/d, Germany study [31]): 0.242 ng/mL | Calc. Cv ([5]; 20 mg/d, Chinese study [30]): 0.883 ng/mL | Calc. Cv ([5]; 20 mg/d, UK study [32]): 0.314 ng/mL | Css,av ([5]; 10 mg/d, China study [30]): 4.27 ng/mL | Css,av ([5]; 10 mg/d, Germany study [31]): 2.02 ng/mL | Css,av ([5]; 20 mg/d, Chinese study [30]): 7.36 ng/mL | Css,av ([5]; 20 mg/d, UK study [32]): 2.62 ng/mL | fu [6]: 0.12 | LPS-induced release of IL-6 ([7]; 5 µM, 24 h prior to LPS (rosuvastatin: DMSO and water)): reduced | LPS-induced release of IL-6 ([7]; 10 µM, 24 h prior to LPS (rosuvastatin: DMSO and water)): reduced | LPS-induced release of IL-6 [7, 11]: decreasing trends | LPS-induced release of IL-8 [8]: reduced | LPS-induced release of MCP-1 ([9]; 5 µM, 24 h prior to LPS): decreased | LPS-induced release of MCP-1 [9, 11]: decreasing trends
